How the values were obtained:
[1] = system: CD4+ and CD8+ T cells; assay: CD69 expression on T cells from peripheral whole blood, imaging flow cytometry; assay type: cell-based, human; conditions: 200 μM overnight, anti-CD3 and anti-CD28 6 hours
Procedure: (§1) The solution was mixed by pipetting with a 1 mL pipette. The plates were incubated in a humidified incubator at 37° C. with 5% CO2 for an additional 6 hours.
The next day, blood was treated with anti-CD3 and anti-CD28 stimulatory antibodies for 6 hours as described in Example 1 or left untreated. After treatment with the stimulatory antibodies, the red blood cells were lysed using multi-species lysis buffer, and the white blood cells were stained with anti-CD4 and anti-CD8 antibodies to label T cells and an anti-CD69 antibody to measure early T cell activation. Frequency of CD69-positive T cells (CD4+ and CD8+) was measured by IFC.

[2] = system: NF-κB (p105/p50) nuclear translocation in CD4 and CD8 positive T cells; assay: NF-kB nuclear translocation in T cells from NHL peripheral whole blood; assay type: cell-based, human
Procedure: as §1
The staining solution was prepared by diluting Hoechst 33342 (Thermo Scientific, cat. #62249) to 10 nM and the p50 antibody (Clone 2J10D7; Novus, cat. #NB100-56583C) at 50 μg/mL in FACS buffer. The cells were incubated in the staining solution for 30 minutes at room temperature in the dark. The cells were washed by centrifugation at 1350 rpm for 5 minutes at room temperature, the supernatants were discarded, and the pellets were reconstituted in FACS buffer. The wash step was repeated twice, and the cells were resuspended in PBS at a final concentration of 5-20×10^6 cell/mL in 25 μL of PBS.
The samples were imaged on an AMNIS® […]® X Mark II imaging flow cytometer (MilliporeSigma, Burlington, Mass.) immediately, using 60× magnification, and the data was analyzed in IDEAS software using an internalization module, e.g., to evaluate frequency of CD4+ and CD8+ T cells or CLL cells with nuclear enrichment of p50.
The next day, the mixture samples were treated with anti-CD3 and anti-CD28 stimulatory antibodies following a procedure as that described in Example 1. […] Samples were analyzed on ImageStreamX to evaluate NF-κB nuclear localization in the CD4 and the CD8 positive T cells.

[3] = system: NF-κB (p105/p50) nuclear translocation in CD19-positive B (CLL) cells; assay: NF-κB nuclear translocation in B cells from CLL PBMCs, 30 min anti-IgM; assay type: cell-based, human; conditions: 6 hours compound, anti-IgM 30 minutes
Procedure: Alternatively, B cells can also be activated by beads coated with anti-IgM antibody. After the stimulation, PBMCs were fixed using CytoFix buffer and permeabilized using 0.1% Triton X-100 solution. Cells were then stained with anti-CD19 to label B (CLL) cells, Hoechst 33342 to label nuclei, and anti-p105/p50 to label NF-κB subunit. Samples were analyzed on ImageStreamX to evaluate NF-κB nuclear localization in the CD19-positive cells. […] Statistical significance was determined using Student's t-test in Microsoft Excel.

[4] = system: NF-kB nuclear localization in B (CLL) cells; assay: NF-κB nuclear translocation in CLL B cells, overnight incubation, 6 h anti-IgM; assay type: cell-based, human; conditions: CLL PBMC; overnight compound; anti-IgM 6 hours
Procedure: Cells were then treated with anti-IgM or left untreated for 6 hours. After stimulation, PBMC were fixed using CytoFix buffer and permeabilized using 0.1% Triton X-100 solution. Cells were then stained with anti-CD19 to label B (CLL) cells, anti-CD4 and anti-CD8 to label T cells, Hoechst 33342 to label nuclei, and anti-p105/p50 to label NF-kB subunit. Samples were analyzed on ImageStreamX to evaluate NF-kB nuclear localization in B cells or T cells. […] Statistical significance was determined using Student's t-test in Microsoft Excel.

[5] = system: peripheral blood of CLL patients; assay: Gene expression in whole blood of CLL patients (NanoString Pan-Cancer Immune Profiling); assay type: cell-based, human; conditions: 200 μM 24 hours, anti-CD3 and anti-CD28 four hours
Procedure: (§2) Peripheral blood was collected from three NHL and two CLL patients. […] Prior to stimulation and following stimulation, the treated blood was transferred into a PAXgene tube (Qiagen; Hilden, Germany) and RNA was extracted using the PAXgene RNA kit. Gene expression was measured using 100 ng of RNA extracted from the whole blood in the Pan-Cancer Immune Profiling kit (NanoString; Seattle, Wash.) according to the manufacturer's instructions.

[6] = system: peripheral blood of NHL patients; assay: Gene expression in whole blood of NHL patients (NanoString Pan-Cancer Immune Profiling); assay type: cell-based, human; conditions: 200 μM 24 hours, anti-CD3 and anti-CD28 four hours
Procedure: as §2

[7] = system: purified T-cells and PBMCs from NHL patients; assay: IL2 expression in purified T-cells and PBMCs from NHL patients; assay type: cell-based, human; conditions: T-cells and PBMC of NHL blood; 24 hours; CD3 and CD28 six hours
Procedure: The effect of a MALT inhibitor was analyzed utilizing gene expression signatures from purified T-cells and PBMCs from Non-Hodgkin's lymphoma patients. Peripheral blood was collected from five NHL patients, and the peripheral blood was allowed to stand overnight. Then, the peripheral blood was treated for 24 hours with a MALT inhibitor or DMSO control. The blood was then stimulated with monoclonal antibodies against CD3 and CD28 for six hours. Prior to stimulation and following stimulation, PBMC were purified from the treated blood using a ficoll density gradient and T-cells were purified using CD3 Beads (Miltenyi) using the manufacturers protocol. Purified cells were lysed in RLTplus (Qiagen) and RNA was extracted from the purified cells using an AllPrepkit (Qiagen). Gene expression was measured using 100 ng of RNA in the Pan-Cancer Immune Profiling kit (NanoString) according to the manufacturer's instructions.

[8] = system: purified T-cells and PBMCs from NHL patients; assay: Gene expression in T-cells and PBMCs purified from NHL blood without stimulation; assay type: cell-based, human; conditions: no stimulation, 24 hours
Procedure: Peripheral blood was collected from five NHL patients, and the peripheral blood was allowed to stand overnight. Then, the peripheral blood was treated for 24 hours with a MALT inhibitor or DMSO control. PBMCs were purified from the unstimulated blood using a ficoll density gradient and T-cells were purified using CD3 Beads (Miltenyi) using the manufacturers protocol. Purified cells were lysed in RLTplus (Qiagen) and RNA was extracted from the purified cells using an AllPrep kit (Qiagen). Gene expression was measured using 100 ng of RNA in the Pan-Cancer Immune Profiling kit (NanoString) according to the manufacturer's instructions. Gene expression signatures were compared between the MALT inhibitor treated and DMSO treated samples.

[9] = system: whole blood of NHL patients; assay: Gene expression signatures in NHL whole blood treated with lymphocyte-stimulating agents; assay type: cell-based, human; conditions: PMA-stimulated samples, 100 μM
Procedure: To obtain a robust gene signature of MALT1 inhibitor activity, whole blood of nine NHL patients which was stimulated with CD3/CD28, PMA/ionomycin, or PBS as a control was tested. Briefly, NHL donor blood was collected in 10 mL sodium heparin tubes and transported in refrigerated state (cold packs). […] Then, aliquots were stimulated with CD3 and CD28 antibodies (1 ug/ml each), PMA (20 ng/ml) and Ionomycin (1 μg/mL), or unstimulated (PBS) for four hours. Following stimulation, the treated blood was transferred into a PAXgene tube (Qiagen; Hilden, Germany) and RNA was extracted using the PAXgene RNA kit.
Gene expression was measured using 100 ng of RNA extracted from the whole blood in the Pan-Cancer Immune Profiling kit (NanoString; Seattle, Wash.) according to the manufacturer's instructions. Gene expression was normalized across samples using NanoString nSolver software. […] Briefly, log 2-scaled, normalized NanoString counts were fit to a linear model (which incorporated the patient of origin) and moderated t-statistics, along with the associated Benjamini-Hochberg (BH) corrected p-values, were computed by empirical Bayes moderation of the standard errors towards a common value.

[10] = system: CD79b-mutant DLBCL and ibrutinib-resistant DLBCL cell lines; assay: Growth of DLBCL cell lines in vitro; assay type: cell-based; conditions: ibrutinib-resistant with BTK C481S or CARD11 mutations
[11] = system: CD79b and CARD11-mutant ABC-DLBCL xenograft models; assay: ABC-DLBCL xenograft models in vivo
[12] = system: proteases, caspases, protein kinases, and G-protein-coupled receptors; assay: Binding inhibition panel at single dose; set-up: dose or concentration left out as unconfirmed
[13] = Oral bioavailability; conditions: in vivo
[14] = system: NF-κB proteins (p50 and RelB) in CLL cells; conditions: CLL cells treated in vitro; cited from earlier work
[15] = system: NF-κB target genes (CCND2, BCL2A, CCL3, CCL4, RGS1, and TNF) in CLL cells; conditions: CLL cells treated in vitro; cited from earlier work

Structure (SMILES): O=C(Nc1ccnc(C(F)(F)F)c1)c1cnn(-c2cccc3c(=O)[nH]ccc23)c1C(F)(F)F [Compound A, 1-(1-oxo-1,2 dihydroisoquinolin-5-yl)-5 (trifluoromethyl)-N-[2 (trifluoromethyl)pyridin-4 yl]-1H-pyrazole-4 carboxamide]
- surface expression of CD69 on T cells ([1]; NHL blood): significantly inhibited
- surface expression of CD69 on CD4+ and CD8+ T cells ([1]; normal blood): not affected
- NFκB nuclear translocation in T cells ([2]; CD3/CD28 stimulation, dosage dependent): completely blocked
- IC50 ([2]; Homo sapiens, CD8 positive, overnight, CD3/CD28 stimulation 6 h, read-out: IC50, NFκB nuclear translocation in T cells): ~9.5 µM
- NF-κB nuclear translocation in activated B cells [3]: inhibited
- NF-κB nuclear translocation in B cells [4]: inhibited
- stimulation induced upregulation of CXCL10 [5]: repressed
- stimulation induced upregulation of CXCL10 [6]: repressed
- stimulation induced upregulation of IL2 [7]: repressed
- APOE expression ([8]; purified PBMCs): repressed
- PYCARD expression ([8]; purified PBMCs): repressed
- NF-κB2 expression ([8]; purified T-cells): repressed
- TNFSF10 expression ([8]; purified T-cells): repressed
- genes significantly upregulated [9]: no genes were significantly upregulated
- gene expression at the specified cutoff levels ([9]; genes ICOS, POU2F2, CCR4, CTLA4): downregulated
- growth of DLBCL cell lines [10]: inhibit growth
- efficacy in xenograft models [11]: shown efficacy
- binding inhibition of proteases, caspases, protein kinases, and G-protein-coupled receptors [12]: did not show significant binding inhibition
- oral bioavailability [13]: orally bioavailable

Structure (SMILES): COCCOc1nc(-c2ccc(Cl)c(Cl)c2)n(-c2ccc(NC(=O)CCl)cc2)n1 [MI-2]
- nuclear translocation of NF-κB proteins [14]: suppress
- expression of six known NF-κB target genes [15]: significantly reduce

Reference: patent US20210156865A1, “METHODS FOR ASSESSING EFFICACY OF MALT1 INHIBITORS USING AN NF-KB TRANSLOCATION ASSAY” (Janssen Pharmaceutica NV, priority 2019, published 2021)
